Data set [1] concerns human cervical cancer cell line Hela. The data set is described as follows: WST-8 antiproliferative assay, Hela. The format is cell-based. The conditions noted are these: for inhibition at 100 µM: read-out: Growth Inhibition (GI%) Hela; for IC50: read-out: IC50 Hela. The procedure:
(§1) Compounds 7a–j, 8a–j, 9a–c, and 10a–c were evaluated for in vitro anticancer activities against five different cancer cell lines, namely, human colorectal adenocarcinoma cell lines DLD-1, human cervical cancer cell line Hela, human pancreatic cancer cell line SUIT-2, human myelogenous leukemia cell line K562, and human hepatocellular carcinoma cell line HepG2 using WST-8 assay at concentrations of 100 µM to investigate the growth inhibition percent (GI%) of each compound using daunorubicin as a reference drug. […]. […] So, as a conclusion on the SAR study of those compounds as antiproliferative agents, the oxime moiety potentiated the anticancer activity and electron donating groups on R1 and R2 played an important role on this activity. Moreover, the sulfamoyl moiety on R3 seems to play a potential role in the activity of the prepared compounds (Table 1).
(§2) All selected compounds and daunorubicin were recorded as the minimum concentration required to inhibit half cell growth (IC50) and the results are listed in Table 2.
(§3) Evaluation of anticancer activity was performed according to the standard water-soluble tetrazolium-8 (WST-8) assay at the Faculty of Engineering, Yamagata University, Yonezawa, Japan, using an MTP-310 absorbance microplate reader. The EGFR inhibitory assay was carried out at the Faculty of Engineering, Yamagata University, Yonezawa, Japan, according to the protocol enzyme linked immunosorbent assay (ELISA) kits (Douset sandwich ELISA test, recombinant mouse EGFR). The JNK-2 inhibitory assay was performed at the Faculty of Engineering, Yamagata University, Yonezawa, Japan, according to the protocol of enzyme-linked immunosorbent assay (ELISA), the assay was carried out using the JNK-2 kit (Simple Step ELISA, pT183/Y185, Abcam Company, Cambridge, CB2 0AX, UK). Apoptosis and cell cycle analysis was performed at Faculty of medicine, Yamagata University, Yamagata, Japan, using BD FACS melody. Molecular docking was performed at the Nano Medical Engineering Laboratory, RIKEN Cluster for Pioneering Researchers, RIEKN, Japan, using ICM-Pro 3.8 software (MolSoft L.L.C., San Diego, CA, USA).
(§4) According to the standard water-soluble tetrazolium-8 (WST-8) assay, the current synthesized compounds have been tested for their anticancer activities against different five cancer cell lines; DLD-1, Hela, K562, SUIT-2, and HepG2 and daunorubicin was used as reference drug by the WST-8 assay. The five cells were maintained in a suspension culture, (Dulbecco’s modified eagle medium (DMEM) for SUIT-2, Hela, and HepG2 or PRIM for K562 and DLD), supplemented with 5% FBS (Fetal Bovine Serum) containing 1% of a penicillin-streptomycin (1:1) mixture. A 100 μL aliquot of cells (10,000 cells/mL) was added to a 96 well plate and incubated for 24 h at 37 °C in a humidified incubator containing 5% CO2 in the air. […] Then A 10 μL WST-8 solution (mixture of WST-8 and 1-methoxy PMS) was added to each well and the incubation continued for 3 h. The visible absorbance at 450 nm and 630 nm as the reference wavelength of each well was quantified using an MTP-310 absorbance microplate reader. Daunorubicin was used as a positive control. The results of cytotoxicity were recorded as growth inhibition percentages and as IC50 values.
Background: Formazan colour is commonly taken as a measure of viable cells.

Data set [2] concerns human myelogenous leukemia cell line K562. The experiment in a line: WST-8 antiproliferative assay, K562. The conditions noted are these: Homo sapiens. The format is cell-based. The procedure:
as §1, §2, §3, §4

The subject of data set [3] is human colorectal adenocarcinoma cell line DLD-1. The experiment in a line: WST-8 antiproliferative assay, DLD-1. Type of data set: cell-based. Particulars: WST-8 assay, six concentrations 1-100 µM.
The test system of data set [4] is human hepatocellular carcinoma cell line HepG2. The experiment in a line: WST-8 antiproliferative assay, HepG2. Type of data set: cell-based. Particulars: WST-8 assay, six concentrations 1-100 µM.
Data set [5] deals with human pancreatic cancer cell line SUIT-2. The experiment in a line: WST-8 antiproliferative assay, SUIT-2. Particulars: WST-8 assay, six concentrations 1-100 µM. Type of data set: cell-based.
The target of another data set is T1, JNK-2 (Homo sapiens, UniProt P45984).
T1 construct: HEK293 only for the control lysate
The data set is described as follows: JNK-2 inhibitory assay (SimpleStep ELISA, pT183/Y185). Type of data set: biochemical. The conditions noted are these: read-out: IC50 (µM) against JNK-2. On the technique in general: ELISA stands for enzyme-linked immunosorbent assay.

Another data set has as its system Hela cells. The experiment in a line: Apoptosis assay, annexin V/PI flow cytometry. The format is cell-based, human. The conditions noted are these: concentration double the IC50, 24 h. From the text:
For further investigation of the anticancer activity of compounds 8g and 8i, studies of apoptotic changes after treatment of Hela cells with these inhibitors were examined using fluorescent microscope and flowcytometry. Moreover, to discriminate between apoptosis and necrosis after the treatment of Hela cell with two inhibitors 8g and 8i at different concentrations, a fluorescent microscope was used to distinguish between apoptosis and necrosis based on their characteristic difference in morphology using annexin V and PI [52]. […] This was exposed in the cell membrane of the Hela cells after treatment with two inhibitors due to plasma membrane sprouting and chromatin concentration. The prolonged incubation of Hela cells with two inhibitors directed cells to necrosis, which was marked in red because of the PI staining of necrotic cells as a result of losing their dye-excluding ability owing to a loss of plasma membrane integrity and the dissolution of nuclear chromatin [53] (Figure S1).
Then, 200 µL of medium was added to separate cells, cells were centrifuged for 5 min, and supernatant was decanted. Then, it was washed twice with 100 µL PBS and 200 µL of buffer, 5 µL of PI& Annexin, and 200 µL of PBS was added for the test compounds. For control, 400 µL of PBS was added. […]

Data set [6] is described as follows: WST-8 cytotoxicity towards normal cell line PC12. Type of data set: cell-based, rat. Particulars: rat, PC12 cells; WST-8 assay, six concentrations 1-100 μM; read-out: CC50 against PC12 cell line. The procedure:
The evaluation of normal cell viability is fundamental in analyzing the efficacy of target compounds and is often used in conjunction with cytotoxicity tests to help understand how target compound toxicity affects normal cell health. […] A 100 μL aliquot of cells (10,000 cells/mL) was added to a 96 well plate and incubated for 24 h at 37 °C in a humidified incubator containing 5% CO2 in the air. […] Then, a 10 μL WST-8 solution (mixture of WST-8 and 1-methoxy PMS) was added to each well and the incubation continued for 3 h. The visible absorbance at 450 nm and 630 nm as the reference wavelength of each well was quantified using an MTP-310 absorbance microplate reader. Daunorubicin was used as a positive control. The results of cytotoxicity were recorded as growth inhibition percentages and as IC50 values.

Where [7] appears, read: K562, 100 µM, WST-8 assay, read-out: Growth Inhibition (GI%) K562.
The mark [8] stands for this setting: K562, WST-8 assay, six concentrations 1-100 µM, read-out: IC50 K562.
Setting [9] is: WST-8 assay, six concentrations 1-100 µM.

As a reminder, the inhibition is the change of the read-out against control, counted positive when it falls. One may read the melting point as the temperature, or range, at which the solid turns liquid. Usually CC50 stands for the concentration that lowers cell viability or growth by half.

Where two headings read alike, the source gives them in different places.

T1 sequence (P45984 whole entry): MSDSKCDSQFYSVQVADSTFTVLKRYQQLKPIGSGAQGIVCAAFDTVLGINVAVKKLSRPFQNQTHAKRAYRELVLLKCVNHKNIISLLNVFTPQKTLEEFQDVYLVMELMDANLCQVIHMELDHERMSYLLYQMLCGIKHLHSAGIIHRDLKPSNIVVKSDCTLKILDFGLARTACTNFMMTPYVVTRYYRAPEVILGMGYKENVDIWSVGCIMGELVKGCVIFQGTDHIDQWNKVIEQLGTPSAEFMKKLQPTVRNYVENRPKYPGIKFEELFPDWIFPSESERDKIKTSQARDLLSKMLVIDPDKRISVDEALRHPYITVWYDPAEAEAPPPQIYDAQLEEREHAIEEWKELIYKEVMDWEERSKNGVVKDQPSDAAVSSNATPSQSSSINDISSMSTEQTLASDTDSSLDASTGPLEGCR
Experimental for JNK-2: The SimpleStep ELISA employs an affinity tag-labelled capture antibody and a reporter attached detector antibody to immunocapture the sample analyte in solution. This complete complex (capture antibody/analyte/detector antibody) is then immobilized via immunoaffinity of an anti-tag antibody coating the well. To perform the assay, samples or controls are added to the wells, followed by the antibody cocktail. After incubation, the wells are washed to remove unbound material. TMB substrate is added and during incubation is catalyzed by HRP, generating blue coloration. This reaction is then stopped by the addition of stop solution, completing any color change from blue to yellow. The signal is generated proportionally to the amount of bound analyte and the intensity is measured at 450 nm. Optionally, instead of the endpoint reading, the development of TMB can be recorded kinetically at 600 nm. An antibody cocktail can be prepared by combining an appropriate volume of the capture and detector antibodies immediately prior to assay. To make 3 mL of the antibody cocktail, combine 1.5 mL of capture antibody with 1.5 mL of detector antibody. Mix thoroughly and gently. Control lysate can be prepared from HEK293 cells, cultured in 10% FBS containing medium, then treated with 1 μg/mL anisomycin. After preparing all the reagents, samples, and control as instructed and following the previously published procedures [74, 75], add 50 µL of sample or control to the well, add 50 µL of the antibody cocktail, then incubate at room temperature for 1 h on a plate shaker set to 400 rpm, aspirate and wash each well three times with 350 μL with wash buffer, add 100 μL TMB substrate to each well and incubate for 15 min, then add 100 μL stop solution and measure the absorbance at 450 nm.

Regarding `C/C(=N\O)c1ccc(NC(=O)c2cc(-c3ccccc3)n(-c3ccc(S(N)(=O)=O)cc3)n2)cc1` [Compound 10a, (E)–N–(4–(1–(Hydroxyimino)ethyl)phenyl)–5–phenyl–1–(4–sulfamoylphenyl)–1H–pyrazole–3–carboxamide], the inhibition at 100 µM in data set [1] (100 µM, WST-8 assay) came to 0%; in [2] (setting [7]), 84%. The IC50 in data set [2] (setting [8]) was found to be 16 µM; in data set [3], 26 µM.
For `COc1cc(/C(C)=N/O)ccc1OC(=O)c1cc(-c2ccccc2)n(-c2ccc(S(N)(=O)=O)cc2)n1` [Compound 8f, (E)–4–(1–(Hydroxyimino)ethyl)–2–methoxyphenyl 5–phenyl–1–(4–sulfamoyl phenyl)–1H–pyrazole–3–carboxylate], the melting point lay within 122 to 124 °C. The inhibition at 100 µM in [1] (100 µM, WST-8 assay) came out at 107%. Also, the IC50 in [1] (setting [9]) is 22 µM. Also, the inhibition at 100 µM in data set [2] (setting [7]) came to 76%. In addition, in [2] (setting [8]), the IC50 worked out at 15.6 µM. In [4], this compound yielded an IC50 of 22.3 µM.
Regarding `COc1cc(/C(C)=N/O)ccc1OC(=O)c1cc(-c2ccc(C)cc2)n(-c2ccccc2)n1` [Compound 8b, (E)–4–(1–(Hydroxyimino)ethyl)–2–methoxyphenyl 1–phenyl–5–p–tolyl–1H–pyrazole–3–carboxylate], the melting point lay in the range of 123 to 125 °C. The inhibition at 100 µM in data set [1] (100 µM, WST-8 assay) was determined as 60%. Further, in data set [1] (setting [9]), the IC50 amounted to 32 µM. For the same compound, the inhibition at 100 µM in [2] (setting [7]) worked out at 99%. Further, in data set [2] (setting [8]), the IC50 was 13 µM. The compound also had an IC50 in [3] of 10 µM. Further, in data set [5], the IC50 was found to be 27 µM. This compound also returned an IC50 in [4] of 35.7 µM.
As to `COc1ccc(-c2cc(C(=O)Nc3ccc(/C(C)=N/O)cc3)nn2-c2ccc(S(N)(=O)=O)cc2)cc1` [Compound 10b, (E)–N–(4–(1–(Hydroxyimino)ethyl)phenyl)–5–(4–methoxyphenyl)–1–(4–sulfamoylphenyl)–1H–pyrazole–3–carboxamide], the melting point lay in the range of 110 to 112 °C. For the same compound, the inhibition at 100 µM in data set [1] (100 µM, WST-8 assay) turned out to be 2%. Moreover, in [2] (setting [7]), the inhibition at 100 µM came out at 84%. This compound gave an IC50 in data set [3] of 36 µM.
`COc1ccc(-c2cc(C(=O)Nc3ccc(/C(C)=N/O)cc3)nn2-c2ccc(S(N)(=O)=O)cc2)cc1OC` [Compound 10c, (E)–5–(3,4–Dimethoxyphenyl)–N–(4–(1–(hydroxyimino)ethyl)phenyl)–1–(4–sulfamoyl phenyl)–1H–pyrazole–3–carboxamide]: the inhibition at 100 µM is 75% in [1] (100 µM, WST-8 assay) and 87% in data set [2] (setting [7]). Moreover, the IC50 was 5 µM in data set [1] (setting [9]), 29 µM in data set [2] (setting [8]) and 13 µM in data set [5].
Take `COc1ccc(-c2cc(C(=O)Oc3ccc(/C(C)=N/O)cc3OC)nn2-c2ccccc2)cc1OC` [Compound 8e, (E)–4–(1–(Hydroxyimino)ethyl)–2–methoxyphenyl 5–(3,4–dimethoxy phenyl)–1–phenyl–1H–pyrazole–3–carboxylate]: the melting point lay within 115 to 118 °C. In addition, the inhibition at 100 µM in data set [1] (100 µM, WST-8 assay) came out at 77%. The IC50 in data set [1] (setting [9]) was found to be 22 µM. Besides, in [2] (setting [7]), the inhibition at 100 µM is 93%. The IC50 in data set [2] (setting [8]) came out at 20 µM. Further, in data set [4], the IC50 worked out at 4.7 µM.
Take `COc1cc(/C(C)=N/O)ccc1OC(=O)c1cc(-c2ccc(Cl)cc2)n(-c2ccc(S(N)(=O)=O)cc2)n1` [Compound 8i, (E)–4–(1–(Hydroxyimino)ethyl)–2–methoxyphenyl 5–(4–chlorophenyl)–1–(4–sulfamoyl phenyl)–1H–pyrazole–3–carboxylate]: the inhibition at 100 µM in data set [1] (100 µM, WST-8 assay) is 100%; in [2] (setting [7]), 97%. Besides, the IC50 came out at 13 µM in [1] (setting [9]), 71 µM in [2] (setting [8]), 1 µM at JNK-2 and 62 µM in [5]. The “percentage of apoptotic Hela cells” value in the data set on Hela cells amounted to 17.3%. Besides, the CC50 at 24 h in data set [6] was greater than 100 µM.
Take `COc1ccc(-c2cc(C(=O)Oc3ccc(/C(C)=N/O)cc3OC)nn2-c2ccc(S(N)(=O)=O)cc2)cc1` [Compound 8h, (E)–4–(1–(Hydroxyimino)ethyl)–2–methoxyphenyl 5–(4–methoxyphenyl)–1–(4–sulfamoyl phenyl)–1H–pyrazole–3–carboxylate]: the melting point is 125 to 127 °C. The inhibition at 100 µM in data set [1] (100 µM, WST-8 assay) came out at 7%. In addition, the IC50 in [1] (setting [9]) is 74 µM. In [2] (setting [7]), the inhibition at 100 µM is 78%. Also, the IC50 in data set [2] (setting [8]) was determined as 21 µM. In addition, the IC50 in data set [5] worked out at 26 µM.
As to `COc1cc(/C(C)=N/O)ccc1OC(=O)c1cc(-c2ccc(Cl)cc2)n(-c2ccccc2)n1` [Compound 8d, (E)–4–(1–(Hydroxyimino)ethyl)–2–methoxyphenyl 5–(4–chlorophenyl)–1–phenyl–1H–pyrazole–3–carboxylate], the melting point was in the range of 106 to 109 °C. Besides, in data set [1], the inhibition at 100 µM was found to be 48% and the IC50 was found to be 57 µM. In addition, the inhibition at 100 µM in data set [2] (K562, read-out: Growth Inhibition (GI%) K562) was 95%. In addition, the IC50 in [2] (K562, read-out: IC50 K562, WST-8 assay, six concentrations 1-100 µM) stood at 9 µM. Also, the IC50 at JNK-2 amounted to 49 µM.
`COc1cc(/C(C)=N/O)ccc1OC(=O)c1cc(-c2ccccc2)n(-c2ccccc2)n1` [Compound 8a, (E)–4–(1–(Hydroxyimino)ethyl)2–methoxyphenyl 1,5–diphenyl–1H–pyrazole–3–carboxylate] gave a melting point of 167 to 170 °C. In addition, in data set [1] (100 µM, WST-8 assay), the inhibition at 100 µM worked out at 33%. Also, in data set [2] (setting [7]), the inhibition at 100 µM is 94%. Besides, the IC50 in data set [2] (setting [8]) is 22 µM.

Source of the values: publication PMC10537604, “Development and Assessment of 1,5–Diarylpyrazole/Oxime Hybrids Targeting EGFR and JNK–2 as Antiproliferative Agents: A Comprehensive Study through Synthesis, Molecular Docking, and Evaluation” (Molecules, 2023).
